Results: US12419307B2, “Mixtures comprising indazole pesticides” (FMC Corporation, priority 2019, dated 2025)

Assays:
Assay type in all cases: in vivo
[1] = system: silverleaf whitefly (Bemisia argentifolii Bellows and Perring); test: Test A: silverleaf whitefly control on cotton or soybean plants, spray, insect mortality after 13 days; conditions: for % Mortality (obs): applied alone
Description: (§1) The pest control protection afforded by the mixtures or compositions is not limited, however, to these species. The analysis of enhanced activity between the mixtures or compositions was determined using Colby's equation. The average % mortality data for the test compounds alone were inserted into the Colby's equation. If the observed (obs) average % mortality was higher than “p”, the expected (exp) % mortality, the mixture or composition had enhanced effects. If the observed average % mortality was equal to or lower than the expected mortality, the mixture or composition either had no enhanced effect. For bioassays where insect feeding damage was evaluated, enhanced activity is identified when the observed plant damage is less than the expected plant damage rating; ratings ranged between 0 (no damage) and 10 (dead plant) and each value was converted to a % plant protection. 100−(Obs Plant Damage*10)
For evaluating control of silverleaf whitefly (Bemisia argentifolii Bellows and Perring) through contact and/or systemic means, each test unit consisted of a small open container with a 12- to 14-day-old cotton plant or 5-7 day old soybean plant inside. This was pre-infested by placing test units into cages containing adult whiteflies so that oviposition on the cotton leaves could occur. The adults were removed from the plants with an air-blast nozzle, and the test units were capped. The test units were then stored 2 to 3 days before spraying.
Test compounds were formulated using a solution containing 10% acetone, 90% water and 300 ppm Activator 90@ Spreader Lo-Foam Formula non-ionic surfactant containing alkylarylpolyoxyethylene, free fatty acids, glycols and 2-propanol (Loveland Industries, Inc.) to provide the desired concentration in ppm. Formulated test solutions were then applied in 1 mL volumes through a SUJ2 atomizer nozzle with ⅛ JJ custom body (Spraying Systems Co.) positioned 1.27 cm (0.5 inches) above the top of each test unit.
The results for all experimental compositions in this test were replicated three times. After spraying of the formulated test composition, each test unit was allowed to dry for 1 hour and the cap removed. The test units were held for 13 days in a growth chamber at 28° C. and 50-70% relative humidity.

[2] = system: Western Flower Thrips (Frankliniella occidentalis Pergande); test: Test B: Western Flower Thrips control on bean plants, plant damage rating converted to % plant protection after 7 days
Description: as §1
Thus, a plant given a plant damage rating of 3 out of 10 is equivalent to 70% plant protection In all of these tests, compounds of Formula I are Compounds 1 (Cpd 1), 2 (Cpd2), and 3 (Cpd3) and compounds of Formula II are compounds 4 (Cpd4) and 5 (Cpd 5).
For evaluating control of the Western Flower Thrips (Frankliniella occidentalis Pergande) through contact and/or systemic means, each test unit consisted of a small open container with a 5- to 7-day-old bean (var. Soleil) plant inside.
Test solutions were formulated and sprayed with 3 replications as described for Test A. After spraying, the test units were allowed to dry for 1 hour, 22 to 27 adult thrips were added to each unit and then a black, screened cap was placed on top. The test units were held for 7 days at 25° C. and 45-55% relative humidity. To evaluate the level of plant protection provided by each treatment, each test unit was then visually assessed for plant damage inflicted by insect feeding and rated 0-10, where 0=undamaged and 10=plant is dead; the results are listed in Tables 3a-g.

[3] = system: cotton melon aphid (Aphis gossypii Glover); test: Test D: cotton melon aphid control on okra plants, insect mortality after 6 days
Description: The analysis of enhanced activity between the mixtures or compositions was determined using Colby's equation. The average % mortality data for the test compounds alone were inserted into the Colby's equation. If the observed (obs) average % mortality was higher than “p”, the expected (exp) % mortality, the mixture or composition had enhanced effects. If the observed average % mortality was equal to or lower than the expected mortality, the mixture or composition either had no enhanced effect. For bioassays where insect feeding damage was evaluated, enhanced activity is identified when the observed plant damage is less than the expected plant damage rating; ratings ranged between 0 (no damage) and 10 (dead plant) and each value was converted to a % plant protection. 100−(Obs Plant Damage*10)
For evaluating control of cotton melon aphid (Aphis gossypii Glover) through contact and/or systemic means, each test unit consisted of a small open container with a 6- to 7-day-old okra plant inside. This was pre-infested by placing on a leaf of the test plant 30 to 40 aphids on a piece of leaf excised from a culture plant (cut-leaf method). The […] moved onto the test plant as the leaf piece desiccated. After pre-infestation, the soil of the test unit was covered with a layer of sand.
Test compounds were formulated and sprayed as described for Test A. The applications were replicated three times. After spraying of the formulated test compounds, each test unit was allowed to dry for 1 hour and then a black, screened cap was placed on top. […]

[4] = system: fall armyworm (Spodoptera frugiperda (J. E. Smith)); test: Test E: fall armyworm control on corn plants, plant damage rating and mortality after 6 days
Description: as §1
For evaluating control of fall armyworm (Spodoptera frugiperda (J. E. Smith)) the test unit consisted of a small open container with a 4-5-day-old corn (maize) plant inside. This was pre-infested with 10-15 1-day-old larvae on a piece of insect diet. Test compounds were formulated and sprayed with 3 replications as described for Test A. After spraying of the formulated test compound, the test units were maintained in a growth chamber for 6 days at 25° C. and 70% relative humidity. Plant feeding damage was then visually assessed based on foliage consumed, and larvae were assessed for mortality. Each test unit was then visually assessed for plant damage and rated 0-10, where 0=undamaged and 10=plant is dead; the results are listed in Tables 6d-i.

[5] = system: corn planthopper (Peregrinus maidis (Ashmead)); test: Test C: corn planthopper control on corn plants, insect mortality after 6 days; conditions: for % Mortality (obs): Table 4e
Description: as §1
For evaluating control of corn planthopper (Peregrinus maidis (Ashmead)) through contact and/or systemic means, the test unit consisted of a small open container with a 3-4-day-old corn (maize) plant inside. White sand was added to the top of the soil prior to application of the test compound.
Test compounds were formulated and sprayed at 250 and/or 50 ppm and/or 10 ppm. After spraying of the formulated test compound, the test units were allowed to dry for 1 h before they were post-infested with ˜15-20 nymphs (18-to-21-day-old). […]

[6] = system: Potato Leafhopper (Empoasca fabae Harris); test: Test C: Potato Leafhopper control on bean plants, insect mortality after 6 days; conditions: read-out: % Mortality (obs)
Description: as §1
For evaluating control of Potato Leafhopper (Empoasca fabae Harris) through contact and/or systemic means, each test unit consisted of a small open container with a 5- to 6-day-old Longio bean plant (primary leaves emerged) inside. White sand was added to the top of the soil, and one of the primary leaves was excised prior to application. Test compounds were formulated and sprayed with 3 replications as described for Test A. After spraying, the test units were allowed to dry for 1 hour before they were infested with 5 potato leafhoppers (18- to 21-day-old adults). A black, screened cap was placed on the top of each container. The test units were held for 6 days in a growth chamber at 19-21° C. and 50-70% relative humidity.

[7] = Bemisia argentifolii, read-out: % Mortality (obs)
[8] = Spodoptera frugiperda, 144 h, read-out: Plant Protection (obs)
[9] = Peregrinus maidis, read-out: % Mortality (obs)
[10] = Aphis gossypii, read-out: % Mortality (obs)
[11] = Peregrinus maidis, 96 h, read-out: % Mortality (obs)

COC(=O)N(C(=O)N1CO[C@@]2(C(=O)OC)Cc3cc(Cl)ccc3C2=N1)c1ccc(OC(F)(F)F)cc1 [Indoxacarb, indoxacarb, reference compound]
% Mortality (obs) ([1]; Table 2g, 50 ppm): 1.2% | % Mortality (obs) ([1]; Table 2g, 250 ppm): 0% | Plant Protection (obs) ([2]; Table 3g, 50 ppm): 10.0 | Plant Protection (obs) ([2]; Table 3g, 250 ppm): 36.7 | % Mortality (obs) ([3]; Table 5h, 50 ppm): 23.4% | % Mortality (obs) ([3]; Table 5h, 250 ppm): 37.5% | Plant Protection (obs) ([4]; Table 6e, 0.2 ppm): 70 | Plant Protection (obs) ([4]; Table 6e, 0.5 ppm): 70

CC(COc1ccc(Oc2ccccc2)cc1)Oc1ccccn1 (centres unmarked) [Pyriproxyfen, pyriproxyfen, reference compound]
mortality at 0.053 ppm [1, 7]: 68%

O=C(NC(=O)c1c(F)cccc1F)Nc1ccc(OC(F)(F)C(F)OC(F)(F)F)c(Cl)c1 (centres unmarked) [Novaluron, novaluron, reference compound]
pest or weed control at 0.21 ppm [4, 8]: 33.3% | pest or weed control at 0.36 ppm [4, 8]: 80%

N#Cc1nn(-c2c(Cl)cc(C(F)(F)F)cc2Cl)c(N)c1[S+]([O-])C(F)(F)F (centres unmarked) [Fipronil, fipronil, reference compound]
mortality at 0.78 ppm [5, 9]: 65.2% | mortality at 1.197 ppm [5, 9]: 85.5%

spinetoram [reference compound]
% Mortality (obs) ([1]; Table 2h, 5 ppm): 0% | % Mortality (obs) ([1]; Table 2h, 29.5 ppm): 64.4% | % Mortality (obs) ([5]; 8.46 ppm): 7.5% | % Mortality (obs) ([5]; 20.79 ppm): 14.1% | % Mortality (obs) ([3]; Table 5f, 50 ppm): 51.2% | % Mortality (obs) ([3]; Table 5f, 250 ppm): 73.9%

O=C1C=C(N(Cc2ccc(Cl)nc2)CC(F)F)CO1 [Flupyradifurone, 4-[[(6-chloro-3-pyridinyl)methyl](2,2-difluoroethyl)amino]-2(5H)-furanone, reference compound]
mortality at 0.02 ppm [3, 10]: 23.4% | mortality at 0.075 ppm [3, 10]: 48%

CCOP(=S)(OCC)Oc1nc(Cl)c(Cl)cc1Cl [Chlorpyrifos, chlorpyrifos, reference compound]
mortality at 0.173 ppm [3, 10]: 17.7% | mortality at 0.624 ppm [3, 10]: 37.9%

N#CCNC(=O)c1cnccc1C(F)(F)F [Flonicamid, flonicamid, reference compound]
% Mortality (obs) ([3]; Table 5k, 0.027 ppm): 24.2% | % Mortality (obs) ([3]; Table 5k, 0.267 ppm): 49.3%

CNC(=O)c1cc(Cl)cc(C)c1NC(=O)c1cc(Br)nn1-c1ncccc1Cl [Chlorantraniliprole, chlorantraniliprole, reference compound]
mortality at 0.54 ppm [1, 7]: 0% | mortality at 189.1 ppm [1, 7]: 59.2% | pest or weed control at 2.08 ppm ([2]; Frankliniella occidentalis, 168 h, Table 3e, 2.08 ppm, read-out: Plant Protection (obs)): 63.3% | pest or weed control at 28.7 ppm ([2]; Frankliniella occidentalis, 168 h, Table 3e, 28.7 ppm, read-out: Plant Protection (obs)): 60% | mortality at 0.23 ppm [3, 10]: 21% | mortality at 0.63 ppm [3, 10]: 42.3%

CC(C)N1C(=O)N(c2ccccc2)CS/C1=N\C(C)(C)C [Buprofezin, buprofezin, reference compound]
mortality at 0.524 ppm [5, 9]: 83.7% | mortality at 0.984 ppm [5, 9]: 94.6%

CNC(=O)ON=C(C)SC [Methomyl, methomyl, reference compound]
pest or weed control at 8.5 ppm [4, 8]: 43.3%

COc1cccc(C(=O)NN(C(=O)c2cc(C)cc(C)c2)C(C)(C)C)c1C [Methoxyfenozide, methoxyfenozide, reference compound]
pest or weed control at 2.8 ppm [4, 8]: 36.7%

C/C(=N\C#N)N(C)Cc1ccc(Cl)nc1 [Acetamiprid, acetamiprid, reference compound]
mortality at 2.52 ppm [1, 7]: 6.5% | mortality at 6.88 ppm [1, 7]: 25.4% | Plant Protection (obs) ([2]; Table 3b, applied alone, 5.49 ppm): 30.0% | Plant Protection (obs) ([2]; Table 3b, applied alone, 7.04 ppm): 70.0% | mortality at 0.03 ppm [3, 10]: 21.1% | mortality at 0.06 ppm [3, 10]: 45.1%

Cc1c(COC(=O)[C@@H]2[C@H](/C=C(\Cl)C(F)(F)F)C2(C)C)cccc1-c1ccccc1 (racemic) [Bifenthrin, bifenthrin, reference compound]
mortality at 50 ppm [1, 7]: 0% | mortality at 250 ppm [1, 7]: 0% | pest or weed control at 50 ppm ([2]; Frankliniella occidentalis, 168 h, Table 3f, 50 ppm, read-out: Plant Protection (obs)): 36.7% | pest or weed control at 250 ppm ([2]; Frankliniella occidentalis, 168 h, Table 3f, 250 ppm, read-out: Plant Protection (obs)): 70% | mortality at 50 ppm [3, 10]: 28.7% | mortality at 250 ppm [3, 10]: 58.2%

CC1(C)C(C=C(Cl)Cl)C1C(=O)OCc1cccc(Oc2ccccc2)c1 (centres unmarked) [Permethrin, permethrin, reference compound]
mortality at 0.0004 ppm [3, 10]: 15.6% | mortality at 0.04 ppm [3, 10]: 32.1%

CCc1nn(C)c(C(=O)NCc2ccc(Oc3ccc(C)cc3)cc2)c1Cl [Tolfenpyrad, tolfenpyrad, reference compound]
mortality at 0.192 ppm [3, 10]: 29% | mortality at 0.753 ppm [3, 10]: 61.9%

O=[N+]([O-])NC1=NCCN1Cc1ccc(Cl)nc1 [Imidacloprid, imidacloprid, reference compound]
mortality at 15.1 ppm [1, 7]: 0% | mortality at 21.15 ppm [1, 7]: 24.7% | Plant Protection (obs) ([2]; Table 3c, applied alone, 6.4 ppm): 66.7% | Plant Protection (obs) ([2]; Table 3c, applied alone, 10.9 ppm): 86.7% | mortality at 0.82 ppm [6]: 53.3% | mortality at 2.25 ppm [6]: 40% | mortality at 0.09 ppm [5, 11]: 29.2% | mortality at 0.16 ppm [5, 11]: 20% | mortality at 0.05 ppm [3, 10]: 33.3% | mortality at 0.1 ppm [3, 10]: 6.7%

emamectin benzoate [reference compound]
Plant Protection (obs) ([4]; Table 6f, 0.03 ppm): 43.3 | Plant Protection (obs) ([4]; Table 6f, 0.06 ppm): 23.3

CCOCn1c(-c2ccc(Cl)cc2)c(C#N)c(Br)c1C(F)(F)F [Chlorfenapyr, chlorfenapyr, reference compound]
pest or weed control at 3.7 ppm [4, 8]: 66.7% | pest or weed control at 5 ppm [4, 8]: 53.3%
